Reference: patent US8835436B2 (priority 2009, dated 2014)
Structures can show the parent of a compound that is named as a salt.

biological target: human recombinant 5-HT2C receptor (Homo sapiens (Human), UniProt P28335); conditions: read-out: Binding affinity to serotonin receptor 5-HT2C: IC50
Sequence (P28335 whole entry, looked up): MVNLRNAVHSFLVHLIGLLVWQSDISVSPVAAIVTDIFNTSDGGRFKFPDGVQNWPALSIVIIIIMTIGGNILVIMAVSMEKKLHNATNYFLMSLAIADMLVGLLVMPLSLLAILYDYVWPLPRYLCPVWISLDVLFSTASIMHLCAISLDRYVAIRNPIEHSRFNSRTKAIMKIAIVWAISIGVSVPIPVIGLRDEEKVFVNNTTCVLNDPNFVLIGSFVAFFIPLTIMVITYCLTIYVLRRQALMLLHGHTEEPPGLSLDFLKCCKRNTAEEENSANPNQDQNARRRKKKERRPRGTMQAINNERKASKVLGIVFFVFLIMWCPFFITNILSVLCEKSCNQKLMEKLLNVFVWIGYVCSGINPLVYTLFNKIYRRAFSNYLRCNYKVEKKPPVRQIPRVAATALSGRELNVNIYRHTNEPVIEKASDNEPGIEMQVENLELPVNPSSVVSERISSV
Protocol: Receptor binding affinities of the compounds for serotonin receptors were measured by the method described in the literature [Park W K et al., Pharmacol Biochem Behay.
The binding affinity (IC50) of a compound for the receptor was calculated by computerized nonlinear regression analysis (GraphPad Prism Program, San Diego, USA) using 7-8 varied concentrations of the compound run in duplicate tubes.
Nonspecific binding was determined using 100 uM mianserin. The incubations were performed for 60 min at 27° C., and these were terminated by rapid filtration through filtermate A glass fiber filter presoaked in 0.5% PEI.

Row | Structure (SMILES) | IC50 [nM]
1 | Cc1nc(C(=O)NCCCN2CCN(c3cccc(Cl)c3Cl)CC2)c(C)n1-c1ccccc1 [Example 6, N-(3-(4-(2,3-dichlorophenyl)piperazin-1-yl)propyl)-2,5-dimethyl-1-phenyl-1H-imidazole-4-carboxamide] | 12.1
2 | CCCc1nc(C(=O)NCCCN2CCN(c3cccc(Cl)c3Cl)CC2)c(C)n1-c1ccccc1 [Example 7, N-(3-(4-(2,3-dichlorophenyl)piperazin-1-yl)propyl)-5-methyl-1-phenyl-2-propyl-1H-imidazole-4-carboxamide dihydrochloride] | 189
3 | CCc1nc(C(=O)NCCN2CCN(c3cccc(Cl)c3Cl)CC2)c(C)n1-c1ccccc1 [Example 13, N-(2-(4-(2,3-dichlorophenyl)piperazin-1-yl)ethyl)-2-ethyl-5-methyl-1-phenyl-1H-imidazole-4-carboxamide] | 62
4 | CCc1c(C(=O)NCCCN2CCN(c3cccc(Cl)c3Cl)CC2)nc(-c2ccc(Cl)cc2Cl)n1-c1ccc(Br)cc1 [Example 89, 1-(4-bromophenyl)-2-(2,4-dichlorophenyl)-N-(3-(4-(2,3-dichlorophenyl)piperazin-1-yl)propyl)-5-ethyl-1H-imidazole-4-carboxamide] | 319
5 | Cc1cccc(N2CCN(CCCNC(=O)c3nc(C)n(CC(C)C)c3C)CC2)c1C [Example 92, N-(3-(4-(2,3-dimethylphenyl)piperazin-1-yl)propyl)-1-isobutyl-2,5-dimethyl-1H-imidazole-4-carboxamide dihydrochloride] | 10100
6 | Cc1cccc(N2CCN(CC(O)CNC(=O)c3nc(C)n(CC(C)C)c3C)CC2)c1C (stereo not shown) [Example 94, N-(3-(4-(2,3-dimethylphenyl)piperazin-1-yl)-2-hydroxypropyl)-1-isobutyl-2,5-dimethyl-1H-imidazole-4-carboxamide dihydrochloride] | 595
7 | CCCn1c(C)nc(C(=O)NCC(O)CN2CCN(c3cccc(C)c3C)CC2)c1C (stereo not shown) [Example 96, N-(3-(4-(2,3-dimethylphenyl)piperazin-1-yl)-2-hydroxypropyl)-2,5-dimethyl-1-propyl-1H-imidazole-4-carboxamide dihydrochloride] | > 10000
8 | COc1ccccc1-n1c(C)nc(C(=O)NCC(O)CN2CCN(c3cccc(C)c3C)CC2)c1C (stereo not shown) [Example 100, N-(3-(4-(2,3-dimethylphenyl)piperazin-1-yl)-2-hydroxypropyl)-1-(2-methoxyphenyl)-2,5-dimethyl-1H-imidazole-4-carboxamide dihydrochloride] | 207
9 | CCCc1nc(C(=O)NCC(O)CN2CCN(c3cccc(C)c3C)CC2)cn1-c1ccc(Cl)cc1 (stereo not shown) [Example 111, 1-(4-chlorophenyl)-N-(3-(4-(2,3-dimethylphenyl)piperazin-1-yl)-2-hydroxypropyl)-2-propyl-1H-imidazole-4-carboxamide dihydrochloride] | 661
10 | COc1cc(OC)cc(-n2c(C)nc(C(=O)NCCN3CCN(c4cccc(C)c4C)CC3)c2C)c1 [Example 112, 1-(3,5-dimethoxyphenyl)-N-(2-(4-(2,3-dimethylphenyl)piperazin-1-yl)ethyl)-2,5-dimethyl-1H-imidazole-4-carboxamide dihydrochloride] | 63
11 | Cc1cccc(N2CCN(CCNC(=O)c3nc(C)n(-c4ccc(F)cc4)c3C)CC2)c1C [Example 114, N-(2-(4-(2,3-dimethylphenyl)piperazin-1-yl)ethyl)-1-(4-fluorophenyl)-2,5-dimethyl-1H-imidazole-4-carboxamide dihydrochloride] | 46
12 | Cc1cccc(N2CCN(CCNC(=O)c3nc(C)n(-c4ccc5c(c4)OCO5)c3C)CC2)c1C [Example 115, 1-(benzo[d][1,3]dioxol-5-yl)-N-(2-(4-(2,3-dimethylphenyl)piperazin-1-yl)ethyl)-2,5-dimethyl-1H-imidazole-4-carboxamide dihydrochloride] | 27
13 | CCCc1nc(C(=O)NCCCN2CCN(c3cccc(C)c3C)CC2)cn1-c1ccccc1 [Example 117, N-(3-(4-(2,3-dimethylphenyl)piperazin-1-yl)propyl)-1-phenyl-2-propyl-1H-imidazole-4-carboxamide dihydrochloride] | 103
14 | CCCc1nc(C(=O)NCC(O)CN2CCN(c3cccc(C)c3C)CC2)cn1-c1ccccc1 (stereo not shown) [Example 121, N-(3-(4-(2,3-dimethylphenyl)piperazin-1-yl)-2-hydroxypropyl)-1-phenyl-2-propyl-1H-imidazole-4-carboxamide dihydrochloride] | 635
15 | COc1ccc(-n2cc(C(=O)NCCCN3CCN(c4cccc(C)c4C)CC3)nc2-c2ccccc2)cc1 [Example 134, N-(3-(4-(2,3-dimethylphenyl)piperazin-1-yl)propyl)-1-(4-methoxyphenyl)-2-phenyl-1H-imidazole-4-carboxamide dihydrochloride] | 101
16 | COc1ccccc1-n1c(C)nc(C(=O)NCCCN2CCN(c3cccc(Cl)c3Cl)CC2)c1C [Example 145, N-(3-(4-(2,3-dichlorophenyl)piperazin-1-yl)propyl)-1-(2-methoxyphenyl)-2,5-dimethyl-1H-imidazole-4-carboxamide dihydrochloride] | 25.5
17 | Cc1ccc(-n2c(C)nc(C(=O)NCCCN3CCN(c4cccc(C)c4C)CC3)c2C)cc1 [Example 147, N-(3-(4-(2,3-dimethylphenyl)piperazin-1-yl)propyl)-2,5-dimethyl-1-p-tolyl-1H-imidazole-4-carboxamide dihydrochloride] | 78.1
18 | Cc1ccc(-n2c(C)nc(C(=O)NCC(O)CN3CCN(c4cccc(C)c4C)CC3)c2C)cc1 (stereo not shown) [Example 148, N-(3-(4-(2,3-dimethylphenyl)piperazin-1-yl)-2-hydroxypropyl)-2,5-dimethyl-1-p-tolyl-1H-imidazole-4-carboxamide dihydrochloride] | 705
19 | Cc1cccc(N2CCN(CC(O)CNC(=O)c3nc(-c4ccccc4)n(-c4ccccc4)c3C)CC2)c1C (stereo not shown) [Example 155, N-(3-(4-(2,3-dimethylphenyl)piperazin-1-yl)-2-hydroxypropyl)-5-methyl-1,2-diphenyl-1H-imidazole-4-carboxamide dihydrochloride] | 525
